The record followed here is US12344620B2, “BRD4 inhibitor compound in solid form and preparation method therefor and use thereof” (CSPC ZHONGQI PHARMACEUTICAL TECHNOLOGY (SHIJIAZHUANG) CO., …, priority 2019, dated 2025).

A short description of data set [1]: Hygroscopicity study by dynamic vapor sorption (DVS). Type of data set: physicochemical. To be noted: 25° C. and 80% RH. Here is the method: • Instrument model: SMS DVS advantage dynamic vapor sorption analyzer • Testing conditions: the sample (10-20 mg) was placed in DVS sample trays for testing. Detailed DVS Parameters: • Temperature: 25° C. • Balancing: dm/dt=0.01%/min (shortest: 10 min, longest: 180 min) • Drying: drying for 120 min at 0% RH • RH (%) testing step: 10% • RH (%) testing step range: 0%-90%-0%
The evaluation of hygroscopicity was classified as follows:
• 10-15 mg of the crystalline form A of the compound of formula (I) was placed on a DVS sample tray for testing.

The nature of data set [2]: Solid stability test of the crystalline form A. It is filed as physicochemical.

As to `Cc1sc2c(c1C)C(c1ccc(Cl)cc1)=N[C@@H](CC(=O)Nc1ccc3c(c1)COC3=O)c1nnc(C)n1-2`, in data set [1], the Moisture absorption classification result is listed as “slightly hygroscopic” and the “ΔW, increase in weight by moisture sorption” value came to 1.789%. For the same compound, in data set [2] (0 day (initial)), the Appearance entry is listed as “White”, the Content stood at 98.7%, the “Crystalline form (XRPD)” value is on record as “form A” and the Total impurity was 0.17%. Moreover, in data set [2] (25° C./60% RH, sealed, 90 days), the Appearance result is on record as “White”, the Content was found to be 99.4%, the “Crystalline form (XRPD)” value is on record as “form A” and the Total impurity is listed as 0.12%. In addition, in data set [2] (40° C./75% RH, sealed, 90 days), the Appearance entry is reported as “White”, the Content turned out to be 99.2%, the “Crystalline form (XRPD)” value is recorded as “form A” and the Total impurity came to 0.19%. Also, the “Solid stability (conclusion)” value in data set [2] (accelerated and prolonged conditions, 90 days) is “good stability”.
